One experiment deals with Plasmodium falciparum. Briefly: Antimalarial activity as reduced parasitaemia against multidrug-resistant Plasmodium falciparum K1 by [3H]hypoxanthine uptake. The format is functional, organism-based.
Experiment [1] relates to Mycobacterium tuberculosis. Briefly: Antimycobacterial activity against Mycobacterium tuberculosis H37Ra by Microplate Alamar Blue Assay. The format is functional. Background: Resazurin is reduced to fluorescent resorufin, in cell work by metabolically active cells.
The next experiment concerns Vero. Description: Cytotoxicity against african green monkey Vero cells at 50 ug/mL by SRB assay. The format is cell-based. As to conditions: Chlorocebus sabaeus. On the technique in general: Sulforhodamine B stains cellular protein and so reports cell mass.
Experiment [2] in a line: Cytotoxicity against human BC1 cells. The format is functional, cell-based.

Converted amounts (≈) assume the structure as drawn. Where a SMILES comes first, the peptide text is derived from it. [ ]: non-standard residue; d: D form. aIle = CC[C@@H](C)[C@H](N)C(=O)O; dPhLac = O=C(O)[C@H](O)Cc1ccccc1; Sar = CNCC(=O)O

In the case of `CC[C@@H](C)[C@@H]1NC(=O)[C@@H](Cc2ccccc2)OC(=O)CN(C)C(=O)[C@H]([C@H](C)CC)NC(=O)[C@@H](Cc2ccccc2)OC(=O)CN(C)C1=O` [HIRSUTELLIDE A] (cyclo([Sar][dPhLac][aIle][Sar][dPhLac][aIle])), the Activity entry with Plasmodium falciparum was “Not toxic”. In experiment [1], this molecule returned an MIC of 6 µg/mL (≈ 9.03 µM). This molecule gave an IC50 with Vero of 2.8 µg/mL (≈ 4.21 µM).

`NNC(=O)c1ccncc1` [ISONIAZID]: in experiment [1], it took 0.04 µg/mL (≈ 0.292 µM) to inhibit growth (MIC).

In turn, `NC[C@H]1O[C@H](O[C@H]2[C@H](O)[C@@H](O[C@H]3O[C@H](CO)[C@@H](O)[C@H](N)[C@H]3O)[C@H](N)C[C@@H]2N)[C@H](O)[C@@H](O)[C@@H]1O.O=S(=O)(O)O` [KANAMYCIN SULFATE] displayed an MIC in experiment [1] of 2 µg/mL.

Consider `C[C@@H]1CC[C@H]2[C@@H](C)C(=O)O[C@@H]3O[C@@]4(C)CC[C@@H]1[C@]32OO4` [ARTEMISININ], for which it took 1 ng/mL (≈ 0.00354 µM) to reach half-maximal inhibition with Plasmodium falciparum (IC50).

`Cc1c2ccncc2c(C)c2c1[nH]c1ccccc12` [ELLIPTECINE]: 0.3 µg/mL (≈ 1.22 µM) corresponded to half-maximal inhibition in experiment [2] (IC50).

As usually defined, the MIC is the lowest concentration that inhibits growth of the organism. Usually IC50 stands for the concentration that inhibits the measured activity by half.
